Source: ChEMBL document CHEMBL1743141, “Membrane transporters in drug development” (Nat Rev Drug Discov, 2010)

Target: T1, Solute carrier organic anion transporter family member 1A2 (Homo sapiens, UniProt P46721)
T1 sequence (P46721 whole entry): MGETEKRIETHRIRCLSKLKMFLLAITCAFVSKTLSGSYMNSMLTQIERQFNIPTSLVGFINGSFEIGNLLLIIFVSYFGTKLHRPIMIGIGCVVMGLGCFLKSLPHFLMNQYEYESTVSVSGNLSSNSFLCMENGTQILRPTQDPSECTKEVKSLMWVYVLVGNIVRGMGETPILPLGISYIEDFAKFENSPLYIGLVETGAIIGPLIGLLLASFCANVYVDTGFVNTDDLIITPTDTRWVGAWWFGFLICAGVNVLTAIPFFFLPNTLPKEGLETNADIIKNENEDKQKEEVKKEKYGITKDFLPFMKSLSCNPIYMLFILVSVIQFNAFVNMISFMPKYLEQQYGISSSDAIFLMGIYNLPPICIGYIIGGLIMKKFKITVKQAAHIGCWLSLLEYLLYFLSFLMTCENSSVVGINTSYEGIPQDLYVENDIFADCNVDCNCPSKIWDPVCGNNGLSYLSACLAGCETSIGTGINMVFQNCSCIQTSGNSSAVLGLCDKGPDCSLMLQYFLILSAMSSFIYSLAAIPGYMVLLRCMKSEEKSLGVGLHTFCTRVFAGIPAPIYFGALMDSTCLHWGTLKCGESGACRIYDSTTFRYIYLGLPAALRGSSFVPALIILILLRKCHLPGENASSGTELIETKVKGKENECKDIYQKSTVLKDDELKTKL
Test: Inhibitors of transporters of clinical importance in the absorption and disposition of drugs, OATP1A2
Type: ADME

Activity: transporter inhibitor
Compound: C[C@@H]1O[C@@H](O[C@H]2[C@H](Oc3cc(O)c4c(c3)O[C@H](c3ccc(O)cc3)CC4=O)O[C@H](CO)[C@@H](O)[C@@H]2O)[C@H](O)[C@H](O)[C@H]1O [NARINGIN]
